Tested on: 521955-158-R2-J5-PDC complex spheroid viability
Assay: Anticancer human tumor 521955-158-R2-J5-PDC patient-derived pancreatic carcinoma cell line growth inhibition [GQUAD]
Conditions: for IC50: curve of first compound; for viability, T/C: stronger effect = lower value
Source text: DNA G-quadruplex Stabilizer Agents in Combinations in Complex Spheroids
A high-throughput screen of multi-cell type tumor spheroids was designed to identify active combinations of DNA G-quadruplex stabilizer agents and targeted small molecules. Complex spheroids include a stromal component modeled by human endothelial cells (HUVEC) and fibroblasts modeled by human mesenchymal stem cells (MSCs). The concentration ranges selected for each drug and investigational agent were based upon clinically achievable concentrations if the clinical Cmax of the agent was known.
Compounds. The drugs and investigational agents: pidnarulex (CX-5461; NSC782164), APTO-253 (NSC789042), BRACO-19 (NSC847499), peposertib (NSC802822), ceralasertib (NSC780249), elimusertib (NSC800525), camonsertib (NSC841442), AZD-1390 (NSC803789), olaparib (NSC753686), talazoparib (NSC767125), ART-558 (NSC835418), sotorasib (NSC818433), MRTX-1133 (NSC836407), SN-38 (NSC673596), topotecan (NSC609699), etoposide (NSC141540), doxorubicin (NSC123127), gemcitabine (NSC613327), 5-fluorouracil (NSC19893), paclitaxel (NSC125973), vemurafenib (NSC761431), panobinostat (NSC761190), R-306465 (JNJ-16241199; NSC773264), adavosertib (NSC754352), TP-3654 (NSC805149), carboplatin (NSC241240), KSQ-4279 (NSC840948), and staurosporine (NSC755774) were obtained from the National Cancer Institute (NCI) Developmental Therapeutics Program Chemical Repository (34). The FDA-approved anticancer drug set is available from the NCI Developmental Therapeutics Program. […] The stock solutions were prepared in dimethyl sulfoxide (DMSO, Sigma-Aldrich, St. Louis, MO, cat. D2650) at 800-fold the tested concentration and stored at -70 degrees C prior to their use. All drugs and investigational agents were tested over a range starting from a high concentration at or near the clinical Cmax and decreasing in half-log increments. If the clinical Cmax for an agent had not been determined, the highest concentration tested was 10 microM.
2.3 Cell Culture. All cells were maintained in an incubator at 37 degrees C and 5% CO2 with 95% humidity. The PDC lines were cultured according to standard operating procedures established by the NCI PDMR. All PDCs were thawed and cultured in Matrigel-coated flasks prepared with a working solution of 1X Ham's F-12 nutrient mix, without supplementation (Invitrogen, cat. 11765054), 100 U/mL penicillin-streptomycin (Invitrogen, cat. 15140122), and 2.5% Matrigel (Corning Inc., cat. 354248) for the first three passages. The 857933-349-R-J2-PDC line was cultured in 6C/Colon 1B media, which includes advanced DMEM/F-12 (Thermo Fisher Scientific, cat. 12634028), 10 mM HEPES (Thermo Fisher Scientific, cat. 15630080), 1X GlutaMAX supplement (Thermo Fisher Scientific, cat. 35050061), 0.1 mg/mL primocin (InvivoGen, cat. ant-pm-2), 10% defined fetal bovine serum, heat inactivated (HyClone Laboratories Inc., cat. SH30070.03HI), 50% L-WRN conditioned media (ATCC, cat. CRL-3276), 1.25 mM N-Acetyl-L-cysteine (Sigma-Aldrich, cat. A9165), 10 mM nicotinamide (Sigma-Aldrich, cat. N0636), 1X B-27 supplement (Thermo Fisher Scientific, cat. 17504044), 1X N-2 supplement (Thermo Fisher Scientific, cat. 17502048), 10 microM Y-27632 dihydrochloride (Tocris Bioscience, cat. 1254), and 50 ng/mL human EGF recombinant protein (Thermo Fisher Scientific, cat. PHG0311). The 485176-168-R4-J1-PDC line was cultured in Panc media, which includes all 6C/Colon 1B media components plus 100 ng/mL human FGF-10 (Thermo Fisher Scientific, cat. 100-26), 500 nM SB-431542 (Selleckchem, cat. S1067), and gastrin (Tocris, cat. 3006).
[…]
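Note: spheroids exposed to agents for one week before reading.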
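Throughout, for viability, T/C: 100% = DMSO vehicle control viability.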

C=CC(=O)N1CCN(c2nc(=O)n(-c3c(C)ccnc3C(C)C)c3nc(-c4c(O)cccc4F)c(F)cc23)C(C)C1 (configuration not stated) + Cc1[nH]c2ccc(F)cc2c1-c1nc2c3cccnc3c3ncccc3c2[nH]1
IC50 (second compound 0.0316 µM): > 10 µM | IC50 (second compound 0.1 µM): > 10 µM | IC50 (second compound 0.316 µM): > 10 µM | IC50 (second compound 1 µM): > 10 µM | IC50 (second compound 3.16 µM): > 10 µM | IC50 (second compound 10 µM): > 10 µM | viability, T/C (second compound 0.0316 µM, first compound 0.0316 µM): 90.3% | viability, T/C (second compound 0.0316 µM, first compound 0.1 µM): 101% | viability, T/C (second compound 0.0316 µM, first compound 0.316 µM): 97.7% | viability, T/C (second compound 0.0316 µM, first compound 1 µM): 94.3% | viability, T/C (second compound 0.0316 µM, first compound 3.16 µM): 124% | viability, T/C (second compound 0.0316 µM, first compound 10 µM): 67.2% | viability, T/C (second compound 0.1 µM, first compound 0.0316 µM): 93% | viability, T/C (second compound 0.1 µM, first compound 0.1 µM): 106% | viability, T/C (second compound 0.1 µM, first compound 0.316 µM): 117% | viability, T/C (second compound 0.1 µM, first compound 1 µM): 102% | viability, T/C (second compound 0.1 µM, first compound 3.16 µM): 102% | viability, T/C (second compound 0.1 µM, first compound 10 µM): 74.8% | viability, T/C (second compound 0.316 µM, first compound 0.0316 µM): 80.9% | viability, T/C (second compound 0.316 µM, first compound 0.1 µM): 96.9% | viability, T/C (second compound 0.316 µM, first compound 0.316 µM): 106% | viability, T/C (second compound 0.316 µM, first compound 1 µM): 104% | viability, T/C (second compound 0.316 µM, first compound 3.16 µM): 100% | viability, T/C (second compound 0.316 µM, first compound 10 µM): 77.9% | viability, T/C (second compound 1 µM, first compound 0.0316 µM): 92.9% | viability, T/C (second compound 1 µM, first compound 0.1 µM): 102% | viability, T/C (second compound 1 µM, first compound 0.316 µM): 107% | viability, T/C (second compound 1 µM, first compound 1 µM): 110% | viability, T/C (second compound 1 µM, first compound 3.16 µM): 128% | viability, T/C (second compound 1 µM, first compound 10 µM): 93.2% | viability, T/C (second compound 3.16 µM, first compound 0.0316 µM): 93.9% | viability, T/C (second compound 3.16 µM, first compound 0.1 µM): 105% | viability, T/C (second compound 3.16 µM, first compound 0.316 µM): 98% | viability, T/C (second compound 3.16 µM, first compound 1 µM): 118% | viability, T/C (second compound 3.16 µM, first compound 3.16 µM): 121% | viability, T/C (second compound 3.16 µM, first compound 10 µM): 79.4% | viability, T/C (second compound 10 µM, first compound 0.0316 µM): 98.2% | viability, T/C (second compound 10 µM, first compound 0.1 µM): 98.3% | viability, T/C (second compound 10 µM, first compound 0.316 µM): 118% | viability, T/C (second compound 10 µM, first compound 1 µM): 129% | viability, T/C (second compound 10 µM, first compound 3.16 µM): 129% | viability, T/C (second compound 10 µM, first compound 10 µM): 101%
